Results from paper doi:10.1101/2023.05.15.540887, “Comparative analysis of drug-like EP300/CREBBP acetyltransferase inhibitors” (bioRxiv, 2023).
pIC50: −log10 of the molar value.

Key:
[1] = test system: MCF7; assay: NCI-60 growth inhibition (sulforhodamine B); format: cell-based; conditions: Homo sapiens, MCF7, Breast Cancer, negative log of Molar value, LCONC -8, EXPID 2301NS84
[2] = test system: CCRF-CEM; set-up: method as in ref 29 (a number printed in a supplementary file, which may have a reference list of its own: not looked up in the article's list); conditions: Leukemia CCRF-CEM; highest log conc -4.0; NCI-60 screen data; cited from earlier work
[3] = test system: RPMI-8226; set-up: method as in ref 29 (a number printed in a supplementary file, which may have a reference list of its own: not looked up in the article's list); conditions: Leukemia RPMI-8226; highest log conc -4.0; NCI-60 screen data; cited from earlier work
[4] = test system: SR; set-up: method as in ref 29 (a number printed in a supplementary file, which may have a reference list of its own: not looked up in the article's list); conditions: Leukemia SR; highest log conc -4.0; NCI-60 screen data; cited from earlier work
[5] = test system: HOP-62; set-up: method as in ref 29 (a number printed in a supplementary file, which may have a reference list of its own: not looked up in the article's list); conditions: Non-SmallCellLung HOP-62; highest log conc -4.0; NCI-60 screen data; cited from earlier work
[6] = test system: SF-295; set-up: method as in ref 29 (a number printed in a supplementary file, which may have a reference list of its own: not looked up in the article's list); conditions: CNS SF-295; highest log conc -4.0; NCI-60 screen data; cited from earlier work
[7] = test system: SF-539; set-up: method as in ref 29 (a number printed in a supplementary file, which may have a reference list of its own: not looked up in the article's list); conditions: CNS SF-539; highest log conc -4.0; NCI-60 screen data; cited from earlier work
[8] = test system: LOXIMVI; set-up: method as in ref 29 (a number printed in a supplementary file, which may have a reference list of its own: not looked up in the article's list); conditions: Melanoma LOXIMVI; highest log conc -4.0; NCI-60 screen data; cited from earlier work
[9] = test system: MALME-3M; set-up: method as in ref 29 (a number printed in a supplementary file, which may have a reference list of its own: not looked up in the article's list); conditions: Melanoma MALME-3M; highest log conc -4.0; NCI-60 screen data; cited from earlier work
[10] = test system: M14; set-up: method as in ref 29 (a number printed in a supplementary file, which may have a reference list of its own: not looked up in the article's list); conditions: Melanoma M14; highest log conc -4.0; NCI-60 screen data; cited from earlier work
[11] = test system: MDA-MB-435; set-up: method as in ref 29 (a number printed in a supplementary file, which may have a reference list of its own: not looked up in the article's list); conditions: Melanoma MDA-MB-435; highest log conc -4.0; NCI-60 screen data; cited from earlier work
[12] = test system: SK-MEL-2; set-up: method as in ref 29 (a number printed in a supplementary file, which may have a reference list of its own: not looked up in the article's list); conditions: Melanoma SK-MEL-2; highest log conc -4.0; NCI-60 screen data; cited from earlier work
[13] = test system: UACC-62; set-up: method as in ref 29 (a number printed in a supplementary file, which may have a reference list of its own: not looked up in the article's list); conditions: Melanoma UACC-62; highest log conc -4.0; NCI-60 screen data; cited from earlier work
[14] = test system: 786-0; set-up: method as in ref 29 (a number printed in a supplementary file, which may have a reference list of its own: not looked up in the article's list); conditions: Renal 786-0; highest log conc -4.0; NCI-60 screen data; cited from earlier work
[15] = test system: PC-3; set-up: method as in ref 29 (a number printed in a supplementary file, which may have a reference list of its own: not looked up in the article's list); conditions: Prostate PC-3; highest log conc -4.0; NCI-60 screen data; cited from earlier work
[16] = test system: MCF7; set-up: method as in ref 29 (a number printed in a supplementary file, which may have a reference list of its own: not looked up in the article's list); conditions: Breast MCF7; highest log conc -4.0; NCI-60 screen data; cited from earlier work
[17] = test system: BT-549; set-up: method as in ref 29 (a number printed in a supplementary file, which may have a reference list of its own: not looked up in the article's list); conditions: Breast BT-549; highest log conc -4.0; NCI-60 screen data; cited from earlier work
[18] = test system: MDA-MB-468; set-up: method as in ref 29 (a number printed in a supplementary file, which may have a reference list of its own: not looked up in the article's list); conditions: Breast MDA-MB-468; highest log conc -4.0; NCI-60 screen data; cited from earlier work
[19] = test system: NCI-H23; set-up: method as in ref 29 (a number printed in a supplementary file, which may have a reference list of its own: not looked up in the article's list); conditions: Non-SmallCellLung NCI-H23; highest log conc -4.0; NCI-60 screen data; cited from earlier work

C[C@H](CN[C@@H](C(=O)Nc1ccc(-c2cnn(C)c2)cn1)c1ccccc1)c1ccc(C#N)cc1 [CPI-1612]
GI50 ([1]; read-out: GI50 NLOGVALUE): < 10 nM | pIC50 ([1]; read-out: IC50 NLOGVALUE): > 8.00

COC(=O)N1c2ccc3c(nc(Cc4ccccc4)n3[C@H]3CCC[C@H](C(=O)O)C3)c2CC[C@@H]1C [FT-6876]
GI50 AVGDATA [2]: -5.18 | GI50 AVGDATA [3]: -5.42 | GI50 AVGDATA [4]: -4.86 | GI50 AVGDATA [5]: -4.95 | GI50 AVGDATA [6]: -4.93 | GI50 AVGDATA [7]: -4.8 | GI50 AVGDATA [8]: -5.99 | GI50 AVGDATA [9]: -5.21 | GI50 AVGDATA [10]: -5.23 | GI50 AVGDATA [11]: -5.07 | GI50 AVGDATA [12]: -4.46 | GI50 AVGDATA [13]: -5.68 | GI50 AVGDATA [14]: -5.25 | GI50 AVGDATA [15]: -5.25 | GI50 AVGDATA [16]: -6.94 | GI50 AVGDATA [17]: -4.31 | GI50 AVGDATA [18]: -5.42

Cc1sc2c(c1C)C(c1ccc(Cl)cc1)=N[C@@H](CC(=O)OC(C)(C)C)c1nnc(C)n1-2 [JQ-1]
GI50 AVGDATA [2]: -6.11 | GI50 AVGDATA [3]: -7.4 | GI50 AVGDATA [4]: -7.35 | GI50 AVGDATA [5]: -6.92 | GI50 AVGDATA [19]: -6.55 | GI50 AVGDATA [6]: -6.74 | GI50 AVGDATA [7]: -6.34 | GI50 AVGDATA [8]: -7.17 | GI50 AVGDATA [9]: -5.32 | GI50 AVGDATA [10]: -6.11 | GI50 AVGDATA [11]: -6.87 | GI50 AVGDATA [12]: -5.27 | GI50 AVGDATA [13]: -7.16 | GI50 AVGDATA [14]: -6.08 | GI50 AVGDATA [15]: -5.96 | GI50 AVGDATA [16]: -7.22 | GI50 AVGDATA [17]: -5.51 | GI50 AVGDATA [18]: -6.95

CO[C@H]1CC[C@H](n2c([C@@H]3CCCC(=O)N3c3ccc(F)c(F)c3)nc3cc(-c4c(C)noc4C)ccc32)CC1 [inobrodib]
GI50 AVGDATA [2]: -5.33 | GI50 AVGDATA [3]: -6.15 | GI50 AVGDATA [4]: -6.12 | GI50 AVGDATA [5]: -5.35 | GI50 AVGDATA [19]: -4.88 | GI50 AVGDATA [6]: -5.17 | GI50 AVGDATA [7]: -5.01 | GI50 AVGDATA [8]: -5.38 | GI50 AVGDATA [9]: -5.76 | GI50 AVGDATA [10]: -5.73 | GI50 AVGDATA [11]: -5.1 | GI50 AVGDATA [12]: -4.94 | GI50 AVGDATA [13]: -5.6 | GI50 AVGDATA [15]: -5.46 | GI50 AVGDATA [16]: -6.2 | GI50 AVGDATA [17]: -4.99 | GI50 AVGDATA [18]: -5.4
